These results are taken from patent US12616705B2, “Use of cannabinoids in the treatment of Angelman syndrome” (JAZZ PHARMACEUTICALS RESEARCH UK LIMITED, priority 2016, dated 2026).

The test system of data set [1] is Heterozygous mice with maternal deficiency of Ube3A (Ube3am−/p+). In words: Clasping test (ataxia) in a mouse model of Angelman syndrome. In kind it is in vivo. The conditions noted are these: AS mice, CBD 20 mg/kg i.p. daily, chronic treatment (30 days), at 10 weeks of age, vs AS mice treated with vehicle; FIG. 1. As for the experimental part:
(§1) Heterozygous mice with maternal deficiency of Ube3A (Ube3am−/p+) and wild type (Ube3am+/p+) were purchased from The Jackson Laboratory (Jackson code: B6.12957-Ube3a tm1Alb/J) and maintained in a C57BL/6 background.
(§2) Drugs were dissolved in 1:1:18 ethanol:cremophor: 0.9% saline, for intraperitoneal (i.p.) administration. […]
Clasping: The clasping test assesses ataxia in mice. Mice were suspended by the base of the tail and their behaviours were recorded for 30 seconds. The time for which the mice clasped their hind limbs was recorded. The time was then scored as follows: 4, 15-30 s, 3, 10-15 s, 2, 5-10 s, 1, 0-5 s and 0, 0 s.

Data set [2] shares this test system. In words: Rotarod test (balance and motor coordination) in a mouse model of Angelman syndrome. It is filed as in vivo. The conditions noted are these: AS mice, CBD 20 mg/kg i.p. daily, chronic treatment (30 days), vs AS mice treated with vehicle; FIG. 2. As for the experimental part: as §1, §2
Rotarod: The rotarod test assesses balance and motor coordination of mice. Mice have been measured for the time (in seconds) of equilibrium before falling on a rotary cylinder by a magnet that, activated from the fall of the mouse on the plate, allows to record the time of permanence on the cylinder. […] The animals were analysed by 2 separate tests at 1-h interval in the same day.
(In the rotarod test animals must keep their balance on a rotating rod.)

Data set [3] shares this test system. Briefly: Tail suspension test (depressive-like behaviour) in a mouse model of Angelman syndrome. In kind it is in vivo. The settings on record: AS mice, CBD 20 mg/kg i.p. daily, vs AS mice treated with vehicle; FIG. 4. As for the experimental part: as §1
Drugs were dissolved in 1:1:18 ethanol:cremophor: 0.9% saline, for intraperitoneal (i.p.) administration. Drug treatment was performed daily for 35 days.
Tail suspension: The tail suspension test assesses depressive-like behaviour in mice. Mice were individually suspended by the tail on a horizontal bar (50 cm from floor) using adhesive tape placed approximately 4 cm from the tip of the tail. The duration of immobility was recorded in seconds over a period of 6 minutes by a time recorder. Immobility time was defined as the absence of escape-oriented behaviour.

For data set [4] the following is noted: background statement; cited from earlier work.

Regarding `C=C(C)[C@@H]1CCC(C)=C[C@H]1c1c(O)cc(CCCCC)cc1O` [CBD, Cannabidiol], the clasping duration entry in data set [1] was “significantly reduced clasping duration”. Also, the “latency to fall (rotarod)” value in data set [2] is “significantly reduced latency to fall”. Also, the “duration of immobility time (tail suspension)” value in data set [3] is given as “significantly reduced the duration of immobility time”.

Turning to `Cc1c(C(=O)NN2CCCCC2)nn(-c2ccc(Cl)cc2Cl)c1-c1ccc(Cl)cc1` [rimonabant], the side effects entry in data set [4] is reported as “serious side effects which limit its use, such as suicide ideation”.
